According to ChEMBL document CHEMBL5233284, “Design, synthesis and anticancer evaluation of 3-methyl-1H-indazole derivatives as novel selective bromodomain-containing protein 4 inhibitors” (Bioorg Med Chem, 2021):
Active and inactive are the calls of the source. The rule behind the calls is not given here.

Tests used:
[1] = target: T1, Bromodomain-containing protein 4 (Homo sapiens, UniProt O60885); experiment: Inhibition of BRD4-BD1 (unknown origin) using C-terminal biotinylated tetra-acetylated histone H4 peptide as substrate incubated for 2.5 hrs by alphascreen assay
MV4-11 [2] = experiment: Antiproliferative activity against human MV4-11 cells assessed as inhibition of cell growth at 10 uM incubated for 96 to 120 hrs by celltiter glo assay relative to control; assay type: functional; settings: for inhibition at 10 µM: Homo sapiens, MV4-11, time 96-120 hrs
CWR22R [3] = experiment: Antiproliferative activity against human 22Rv1 cells assessed as inhibition of cell growth at 10 uM incubated for 96 to 120 hrs by celltiter glo assay relative to control; assay type: functional; settings: for inhibition at 10 µM: Homo sapiens, 22Rv1, time 96-120 hrs
[4] = target: T1, Bromodomain-containing protein 4; settings: dose 200.0 µM, time 30-60 min
Description: Binding affinity to BRD4-BD1 (unknown origin) assessed as change in melting temperature at 200 uM incubated for 30 to 60 mins by SYPRO orange dye based thermal shift assay

MV4-11 [5] = experiment: Antiproliferative activity against human MV4-11 cells assessed as inhibition of cell growth incubated for 96 to 120 hrs by celltiter glo assay; assay type: functional, cell-based
CWR22R [6] = experiment: Antiproliferative activity against human 22Rv1 cells assessed as inhibition of cell growth incubated for 96 to 120 hrs by celltiter glo assay; assay type: functional, cell-based
[7] = target: T1, Bromodomain-containing protein 4; experiment: Inhibition of BRD4-BD1 (unknown origin) at 60 uM relative to control
[8] = target: Bromodomain-containing protein 2 (Homo sapiens) (UniProt P25440); experiment: Binding affinity to BRD2 BD1 (unknown origin) assessed as change in melting temperature at 200 uM incubated for 30 to 60 mins by SYPRO orange dye based thermal shift assay; settings: time 30-60 min
[9] = target: Bromodomain-containing protein 3 (Homo sapiens) (UniProt Q15059); experiment: Binding affinity to BRD3 BD1 (unknown origin) assessed as change in melting temperature at 200 uM incubated for 30 to 60 mins by SYPRO orange dye based thermal shift assay; settings: time 30-60 min
Chain of Bromodomain-containing protein 3 (Homo sapiens) (Q15059 2-726 limits assumed): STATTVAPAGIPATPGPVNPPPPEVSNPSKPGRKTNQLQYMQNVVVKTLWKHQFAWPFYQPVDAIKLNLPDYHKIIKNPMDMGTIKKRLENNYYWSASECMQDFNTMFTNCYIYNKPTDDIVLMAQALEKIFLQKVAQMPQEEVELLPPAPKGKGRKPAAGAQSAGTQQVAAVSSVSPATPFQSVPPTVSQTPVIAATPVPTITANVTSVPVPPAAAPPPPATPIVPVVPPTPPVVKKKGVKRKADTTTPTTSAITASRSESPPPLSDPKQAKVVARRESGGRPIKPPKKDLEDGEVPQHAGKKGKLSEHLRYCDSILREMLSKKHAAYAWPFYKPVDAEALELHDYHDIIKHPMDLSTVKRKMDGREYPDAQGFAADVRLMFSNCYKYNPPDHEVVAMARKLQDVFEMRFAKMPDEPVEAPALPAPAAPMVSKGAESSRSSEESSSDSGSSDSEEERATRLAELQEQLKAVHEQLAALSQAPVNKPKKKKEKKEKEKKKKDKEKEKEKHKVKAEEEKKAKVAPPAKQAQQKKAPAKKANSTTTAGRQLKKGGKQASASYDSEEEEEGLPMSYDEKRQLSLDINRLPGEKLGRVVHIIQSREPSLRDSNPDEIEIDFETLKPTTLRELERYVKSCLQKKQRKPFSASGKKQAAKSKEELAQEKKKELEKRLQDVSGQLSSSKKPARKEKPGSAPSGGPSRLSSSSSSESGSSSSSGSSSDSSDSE

[10] = target: CREB-binding protein (Homo sapiens) (UniProt Q92793); experiment: Binding affinity to CBP (unknown origin) assessed as change in melting temperature at 200 uM incubated for 30 to 60 mins by SYPRO orange dye based thermal shift assay; settings: time 30-60 min
[11] = target: Histone acetyltransferase p300 (Homo sapiens) (UniProt Q09472); experiment: Binding affinity to EP300 (unknown origin) assessed as change in melting temperature at 200 uM incubated for 30 to 60 mins by SYPRO orange dye based thermal shift assay; settings: time 30-60 min
[12] = target: Chromatin remodeling regulator CECR2 (Homo sapiens) (UniProt Q9BXF3); experiment: Binding affinity to CECR2 (unknown origin) assessed as change in melting temperature at 200 uM incubated for 30 to 60 mins by SYPRO orange dye based thermal shift assay; settings: time 30-60 min
Chain of Chromatin remodeling regulator CECR2 (Homo sapiens) (Q9BXF3 whole entry, looked up, the tested form may be a part): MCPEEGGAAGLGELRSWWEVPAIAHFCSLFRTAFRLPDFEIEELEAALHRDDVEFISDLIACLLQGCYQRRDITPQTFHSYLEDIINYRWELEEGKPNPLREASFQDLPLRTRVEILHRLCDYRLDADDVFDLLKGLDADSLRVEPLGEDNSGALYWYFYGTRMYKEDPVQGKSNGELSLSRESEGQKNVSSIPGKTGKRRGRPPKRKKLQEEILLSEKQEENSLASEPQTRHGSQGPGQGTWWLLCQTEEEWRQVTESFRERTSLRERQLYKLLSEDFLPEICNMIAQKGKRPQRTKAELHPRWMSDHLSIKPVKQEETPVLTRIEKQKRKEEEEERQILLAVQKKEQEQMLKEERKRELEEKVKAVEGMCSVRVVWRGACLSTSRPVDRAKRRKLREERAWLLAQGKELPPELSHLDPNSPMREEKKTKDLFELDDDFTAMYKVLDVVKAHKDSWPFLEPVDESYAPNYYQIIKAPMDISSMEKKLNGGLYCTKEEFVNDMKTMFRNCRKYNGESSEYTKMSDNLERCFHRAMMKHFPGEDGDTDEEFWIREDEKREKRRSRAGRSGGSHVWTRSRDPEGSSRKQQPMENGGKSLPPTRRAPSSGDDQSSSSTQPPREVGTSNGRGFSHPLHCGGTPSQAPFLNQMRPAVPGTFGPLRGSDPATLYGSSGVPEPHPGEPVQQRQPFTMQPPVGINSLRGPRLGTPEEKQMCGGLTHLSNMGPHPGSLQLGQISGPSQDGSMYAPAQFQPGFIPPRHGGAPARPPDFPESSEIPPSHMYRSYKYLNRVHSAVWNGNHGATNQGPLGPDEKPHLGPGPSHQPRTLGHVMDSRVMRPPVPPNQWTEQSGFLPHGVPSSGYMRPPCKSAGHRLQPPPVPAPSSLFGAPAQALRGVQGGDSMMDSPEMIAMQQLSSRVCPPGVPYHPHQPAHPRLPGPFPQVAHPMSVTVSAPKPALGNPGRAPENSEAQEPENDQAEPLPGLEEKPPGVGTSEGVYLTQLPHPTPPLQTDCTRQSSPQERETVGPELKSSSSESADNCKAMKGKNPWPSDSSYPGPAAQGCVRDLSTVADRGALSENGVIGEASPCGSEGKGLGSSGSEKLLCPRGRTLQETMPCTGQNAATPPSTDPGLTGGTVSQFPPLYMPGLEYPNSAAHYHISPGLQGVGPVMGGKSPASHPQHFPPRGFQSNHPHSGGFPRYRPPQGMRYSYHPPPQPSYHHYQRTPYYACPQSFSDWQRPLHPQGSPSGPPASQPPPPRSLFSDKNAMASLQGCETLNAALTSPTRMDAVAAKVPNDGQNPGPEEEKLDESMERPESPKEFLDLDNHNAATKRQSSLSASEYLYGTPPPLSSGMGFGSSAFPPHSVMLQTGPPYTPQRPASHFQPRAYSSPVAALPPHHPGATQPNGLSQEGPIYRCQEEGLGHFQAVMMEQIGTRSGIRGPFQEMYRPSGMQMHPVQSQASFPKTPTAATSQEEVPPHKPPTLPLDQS

[13] = target: Bromodomain adjacent to zinc finger domain protein 2B (Homo sapiens) (UniProt Q9UIF8); experiment: Binding affinity to BAZ2B (unknown origin) assessed as change in melting temperature at 200 uM incubated for 30 to 60 mins by SYPRO orange dye based thermal shift assay; settings: time 30-60 min
[14] = target: Histone acetyltransferase KAT2B (Homo sapiens) (UniProt Q92831); experiment: Binding affinity to PCAF (unknown origin) assessed as change in melting temperature at 200 uM incubated for 30 to 60 mins by SYPRO orange dye based thermal shift assay; settings: time 30-60 min
Chain of Histone acetyltransferase KAT2B (Homo sapiens) (Q92831 whole entry, looked up): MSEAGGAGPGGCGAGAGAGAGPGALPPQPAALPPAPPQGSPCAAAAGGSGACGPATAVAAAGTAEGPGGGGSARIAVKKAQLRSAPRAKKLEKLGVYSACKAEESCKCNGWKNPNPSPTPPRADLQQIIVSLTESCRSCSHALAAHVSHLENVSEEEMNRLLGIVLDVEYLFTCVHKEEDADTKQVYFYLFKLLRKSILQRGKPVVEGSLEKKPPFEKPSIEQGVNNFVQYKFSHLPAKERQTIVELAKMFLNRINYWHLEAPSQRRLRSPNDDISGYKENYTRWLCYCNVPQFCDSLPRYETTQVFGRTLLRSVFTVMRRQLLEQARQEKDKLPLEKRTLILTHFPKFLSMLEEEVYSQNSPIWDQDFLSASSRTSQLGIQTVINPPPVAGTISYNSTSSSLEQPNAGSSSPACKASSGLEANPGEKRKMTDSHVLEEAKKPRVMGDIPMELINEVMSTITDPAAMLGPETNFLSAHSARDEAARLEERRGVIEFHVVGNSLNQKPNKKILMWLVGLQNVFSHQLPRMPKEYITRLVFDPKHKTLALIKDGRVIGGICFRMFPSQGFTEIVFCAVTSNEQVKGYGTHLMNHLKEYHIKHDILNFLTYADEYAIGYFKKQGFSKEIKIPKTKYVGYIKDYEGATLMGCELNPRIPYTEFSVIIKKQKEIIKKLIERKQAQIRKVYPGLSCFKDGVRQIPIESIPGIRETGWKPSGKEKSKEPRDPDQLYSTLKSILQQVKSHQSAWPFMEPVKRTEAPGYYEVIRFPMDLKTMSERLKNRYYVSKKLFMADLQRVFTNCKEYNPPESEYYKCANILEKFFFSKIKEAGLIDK

[15] = target: SWI/SNF-related matrix-associated actin-dependent regulator of chromatin subfamily A member 2 (Homo sapiens) (UniProt P51531); experiment: Binding affinity to SMARCA2A (unknown origin) assessed as change in melting temperature at 200 uM incubated for 30 to 60 mins by SYPRO orange dye based thermal shift assay; settings: time 30-60 min
Chain of SWI/SNF-related matrix-associated actin-dependent regulator of chromatin subfamily A member 2 (Homo sapiens) (P51531 whole entry): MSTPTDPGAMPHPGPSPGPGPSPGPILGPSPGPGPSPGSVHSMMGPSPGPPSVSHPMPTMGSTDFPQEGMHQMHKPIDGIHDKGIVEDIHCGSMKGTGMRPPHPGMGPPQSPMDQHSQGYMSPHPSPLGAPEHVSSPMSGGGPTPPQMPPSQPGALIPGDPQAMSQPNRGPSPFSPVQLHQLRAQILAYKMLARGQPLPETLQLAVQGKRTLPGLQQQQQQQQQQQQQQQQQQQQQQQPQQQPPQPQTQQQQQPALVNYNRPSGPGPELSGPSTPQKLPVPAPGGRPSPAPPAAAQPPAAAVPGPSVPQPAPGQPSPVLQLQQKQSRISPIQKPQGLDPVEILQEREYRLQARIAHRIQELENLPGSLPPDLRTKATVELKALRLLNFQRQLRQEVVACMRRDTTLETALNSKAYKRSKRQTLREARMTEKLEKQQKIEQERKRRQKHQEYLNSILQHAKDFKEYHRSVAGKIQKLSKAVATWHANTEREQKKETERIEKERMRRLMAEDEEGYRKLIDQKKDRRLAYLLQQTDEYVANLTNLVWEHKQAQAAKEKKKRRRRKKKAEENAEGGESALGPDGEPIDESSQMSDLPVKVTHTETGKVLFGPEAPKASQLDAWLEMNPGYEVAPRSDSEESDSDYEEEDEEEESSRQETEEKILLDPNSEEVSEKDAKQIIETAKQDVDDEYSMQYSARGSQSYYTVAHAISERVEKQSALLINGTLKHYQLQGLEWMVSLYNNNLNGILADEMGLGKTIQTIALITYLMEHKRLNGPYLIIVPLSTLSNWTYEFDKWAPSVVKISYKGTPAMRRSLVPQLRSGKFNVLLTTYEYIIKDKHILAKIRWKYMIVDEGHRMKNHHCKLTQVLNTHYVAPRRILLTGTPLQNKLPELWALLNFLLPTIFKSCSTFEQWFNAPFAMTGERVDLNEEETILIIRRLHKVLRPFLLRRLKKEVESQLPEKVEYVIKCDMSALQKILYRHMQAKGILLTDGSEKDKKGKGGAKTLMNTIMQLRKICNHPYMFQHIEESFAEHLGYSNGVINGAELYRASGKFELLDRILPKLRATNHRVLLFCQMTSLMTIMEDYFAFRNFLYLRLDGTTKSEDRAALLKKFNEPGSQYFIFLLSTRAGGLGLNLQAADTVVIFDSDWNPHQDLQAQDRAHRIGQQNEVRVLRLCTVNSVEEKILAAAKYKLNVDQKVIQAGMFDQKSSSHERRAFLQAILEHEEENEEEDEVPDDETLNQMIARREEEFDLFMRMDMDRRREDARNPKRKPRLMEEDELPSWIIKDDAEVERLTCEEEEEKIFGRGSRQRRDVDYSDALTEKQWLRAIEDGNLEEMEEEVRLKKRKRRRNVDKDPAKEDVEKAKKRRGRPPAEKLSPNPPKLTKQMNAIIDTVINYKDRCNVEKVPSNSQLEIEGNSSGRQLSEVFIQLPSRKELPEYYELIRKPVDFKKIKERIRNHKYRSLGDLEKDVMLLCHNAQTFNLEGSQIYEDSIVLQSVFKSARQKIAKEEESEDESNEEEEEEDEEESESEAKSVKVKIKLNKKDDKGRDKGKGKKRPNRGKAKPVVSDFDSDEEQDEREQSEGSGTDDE

[16] = target: T1, Bromodomain-containing protein 4; experiment: Inhibition of BRD4 BD1 in human MV4-11 cells assessed as inhibition of c-myc protein expression at 20 uM incubated for 48 hrs by Western blot analysis; assay type: cell-based

Row | Compound | IC50 [1] | inhibition at 10 µM (MV4-11 [2]) | inhibition at 10 µM (CWR22R [3]) | ΔTm [4] | IC50 (MV4-11 [5]) | other results
1 | Cc1n[nH]c2ccc(-c3nc4cnc(N5CCOCC5)cn4c3Nc3ccc(Br)cc3)cc12 | 4.69 µM | 45.9% | 10.1% | 6.9 °C | – | –
2 | Cc1n[nH]c2ccc(-c3nc4cnc(N5CCN(C)CC5)cn4c3Nc3ccc(Cl)cc3F)cc12 | 6.78 µM | 0% | – | 4.5 °C | 10.3 µM | IC50 (CWR22R [6]): 14.1 µM
3 | Cc1n[nH]c2ccc(-c3nc4cnc(N5CCN(C)CC5)cn4c3Nc3ccc(Br)cc3)cc12 | 6.94 µM | 83% | 11.7% | 7.2 °C | 2.6 µM | –
4 | Cc1n[nH]c2ccc(-c3nc4cnc(N5CCN(C)CC5)cn4c3Nc3cccc(Cl)c3)cc12 | – | 0% | – | 6.3 °C | – | –
5 | Cc1n[nH]c2ccc(-c3nc4cnc(N5CCN(C)CC5)cn4c3Nc3ccc(Cl)cc3)cc12 | 6.35 µM | 83.7% | 8.11% | 5 °C | 3.51 µM | –
6 | Cc1n[nH]c2ccc(-c3nc4cnc(N5CCN(C)CC5)cn4c3Nc3ccccc3Cl)cc12 | – | 58.1% | – | 3.6 °C | – | –
7 | Cc1n[nH]c2ccc(-c3nc4cnc(N5CCC(C)CC5)cn4c3Nc3ccc(Cl)cc3)cc12 | 20.4 µM | 27.9% | 12.6% | 2.1 °C | – | –
8 | COc1cc(-c2nc3cnccn3c2Nc2ccccc2)ccc1O | – | – | – | – | – | inhibition [7]: 40%
9 | Cc1n[nH]c2ccc(-c3nc4cnc(N5CCN(C)CC5)cn4c3Nc3ccc(I)cc3)cc12 | – | 0% | – | 4.5 °C | – | –
10 | COc1ccc(Nc2c(-c3ccc4[nH]nc(C)c4c3)nc3cnc(N4CCN(C)CC4)cn23)cc1OC | 12.7 µM | 6.27% | 0% | 6.9 °C | – | –
11 | Cc1n[nH]c2ccc(-c3nc4cnc(N5CCOCC5)cn4c3Nc3ccc(Cl)cc3)cc12 | 3.55 µM | 84% | 13.8% | 7.5 °C | 3.7 µM | IC50 (CWR22R [6]): 15.8 µM; ΔTm [8]: 1 °C; ΔTm [9]: 2.3 °C; ΔTm [10]: -1 °C; ΔTm [11]: -1.5 °C; ΔTm [12]: 0 °C; ΔTm [13]: -2 °C; ΔTm [14]: -1.5 °C; ΔTm [15]: 0 °C; inhibition [16]: Active
12 | Cc1n[nH]c2ccc(-c3nc4cnc(N5CCOCC5)cn4c3Cc3ccc(Cl)cc3)cc12 | – | 0% | – | 6.6 °C | – | –
13 | Cc1n[nH]c2ccc(-c3nc4cnc(N5CCOCC5)cn4c3Nc3ccccc3)cc12 | 3.79 µM | 0% | – | 6.1 °C | – | IC50 (CWR22R [6]): 38.2 µM
14 | Cc1n[nH]c2ccc(-c3nc4cnc(N5CCN(C)CC5)cn4c3Nc3ccccc3F)cc12 | 9.89 µM | 0% | 0% | 6.9 °C | – | –
15 | Cc1ccc(C)c(Nc2c(-c3ccc4[nH]nc(C)c4c3)nc3cnc(N4CCN(C)CC4)cn23)c1 | – | 0% | – | 5.3 °C | – | –
16 | Cc1n[nH]c2ccc(-c3nc4cnc(N5CCN(C)CC5)cn4c3Nc3ccc(F)cc3)cc12 | 4.17 µM | 0% | – | 6.5 °C | 32.3 µM | IC50 (CWR22R [6]): 33.6 µM
17 | Cc1n[nH]c2ccc(-c3nc4cnc(N5CCN(C)CC5)cn4c3Nc3cccc(F)c3)cc12 | 14.3 µM | 18.5% | 5.41% | 6.9 °C | – | –
18 | Cc1n[nH]c2ccc(-c3nc4cnc(N5CCN(C)CC5)cn4c3Nc3cc(Cl)ccc3Cl)cc12 | 3.61 µM | 23.8% | 3.8% | 3.9 °C | – | –
19 | Cc1n[nH]c2ccc(-c3nc4cnc(N5CCN(C)CC5)cn4c3Nc3ccc(Br)cc3Cl)cc12 | – | 70.5% | – | 2.7 °C | 9.22 µM | –
20 | Cc1n[nH]c2ccc(-c3nc4cnc(N5CCN(C)CC5)cn4c3Nc3ccccc3)cc12 | 6.1 µM | 0% | – | 5 °C | – | –
21 | Cc1n[nH]c2ccc(-c3nc4cnc(N5CCN(C)CC5)cn4c3Nc3ccc(F)cc3Br)cc12 | 7.48 µM | 82.4% | 4.41% | 5.1 °C | 3.83 µM | –
22 | Cc1sc2c(c1C)C(c1ccc(Cl)cc1)=N[C@@H](CC(=O)OC(C)(C)C)c1nnc(C)n1-2 | – | – | – | – | 0.017 µM | inhibition (INH) (MV4-11 [2]; time 96-120 hrs): 90.01%; inhibition (INH) (CWR22R [3]; time 96-120 hrs): 82.88%; IC50 (CWR22R [6]): 0.033 µM; ΔTm [15]: -0.5 °C
23 | Cc1cc(Br)ccc1Nc1c(-c2ccc3[nH]nc(C)c3c2)nc2cnc(N3CCN(C)CC3)cn12 | – | 59.4% | – | 3.7 °C | 10.8 µM | IC50 (CWR22R [6]): 6.51 µM
24 | COc1ccc(Nc2c(-c3ccc4[nH]nc(C)c4c3)nc3cnc(N4CCN(C)CC4)cn23)cc1 | 20.5 µM | 3.32% | 0% | 5.3 °C | – | –
25 | Cc1n[nH]c2ccc(-c3nc4cnc(N5CCN(C)CC5)cn4c3Nc3ccc(Cl)cc3Cl)cc12 | 16 µM | 78.8% | 9.53% | 2 °C | 4.72 µM | –
26 | COc1ccc(Nc2c(-c3ccc4[nH]nc(C)c4c3)nc3cnc(N4CCOCC4)cn23)cc1 | 5.15 µM | 11.5% | 1.2% | 6.9 °C | – | –
27 | Cc1n[nH]c2ccc(-c3nc4cnc(N5CCN(C)CC5)cn4c3Nc3ccc(F)c(Cl)c3)cc12 | 5.81 µM | 84.1% | 0.82% | 6 °C | 2.85 µM | IC50 (CWR22R [6]): 14 µM
